Laboratory results: patent publication US7932211B2, “4-(4-trifluoromethyl-3-thiobenzoyl)pyrazoles and their use as herbicides” (Bayer Cropscience AG, priority 2007, dated 2011)

Experiments:
Format in all cases: in vivo
[1] = tested on: AMARE Amaranthus retroflexus; assay: Pre-emergence herbicidal action against harmful plants; settings: visual scoring 3-4 weeks after treatment
Description: (§1) Seeds or rhizome pieces of mono- and dicotyledonous harmful plants are placed in sandy loam in pots of a diameter of 9 to 13 cm and covered with soil. The herbicides, formulated as emulsifiable concentrates or dusts, are applied to the surface of the covering soil in the form of aqueous dispersions or suspensions or emulsions at an application rate of 300 to 800 l of water/ha (converted), at various dosages. For further cultivation of the plants, the pots are then kept in a greenhouse under optimum conditions. The visual scoring of the damage to the harmful plants is carried out 3-4 weeks after the treatment. As shown by the results of these comparative tables, the selected compounds according to the invention have better herbicidal activity against a broad spectrum of economically important mono- and dicotyledonous harmful plants than the compounds disclosed in the prior art.

[2] = tested on: STEME Stellaria media; assay: as above; settings: 80 g a.i./ha, visual scoring 3-4 weeks after treatment, Comparative Table 2
Description: as §1

[3] = tested on: VERPE Veronica persica; assay: as above; settings: 80 g a.i./ha, visual scoring 3-4 weeks after treatment
Description: as §1

[4] = tested on: DIGSA Digitaria sanguinalis; assay: Post-emergence herbicidal action against harmful plants; settings: 80 g a.i./ha, scored after 3 to 4 weeks, Comparative Table 10
Experimental: (§2) Seeds of mono- and dicotyledonous harmful plants are placed in sandy loam in cardboard pots, covered with soil and grown in the greenhouse under good growth conditions. Two to three weeks after sowing, the test plants are treated at the three-leaf stage. The compounds according to the invention, which are formulated as wettable powders or as emulsion concentrates, are sprayed at an application rate of 600 to 800 l of water/ha (converted) in a dosage stated in tables 1 to 5 onto the surface of the green plant parts. After the test plants have been left to stand in the greenhouse for 3 to 4 weeks under optimum growth conditions, the action of the compounds according to the invention is scored in comparison to compounds disclosed in the prior art. As shown by the results of these comparison tables, the selected compounds according to the invention have better herbicidal activity against a broad spectrum of economically important mono- and dicotyledonous harmful plants than the compounds disclosed in the prior art.

[5] = tested on: ECHCG Echinochloa crus galli; assay: as above; settings: scored after 3 to 4 weeks
Experimental: as §2

[6] = tested on: LOLMU Lolium multiflorum; assay: as above; settings: scored after 3 to 4 weeks
Experimental: as §2

[7] = tested on: SETVI Setaria viridis; assay: as above; settings: scored after 3 to 4 weeks
Experimental: as §2

[8] = tested on: AVESA; assay: as above; settings: Port-emergence, scored after 3 to 4 weeks, Comparative Table 7
Experimental: as §2

[9] = tested on: POLCO Polygonum convolvulus; assay: as above; settings: Port-emergence, 80 g a.i./ha, scored after 3 to 4 weeks; Comparative Table 5
Experimental: as §2

[10] = tested on: STEME Stellaria media; assay: as above; settings: Port-emergence, 80 g a.i./ha, scored after 3 to 4 weeks; Comparative Table 5
Experimental: as §2

[11] = tested on: VERPE Veronica persica; assay: as above; settings: 80 g a.i./ha, scored after 3 to 4 weeks
Experimental: as §2

[12] = tested on: VIOTR Viola tricolor; assay: as above; settings: 80 g a.i./ha, scored after 3 to 4 weeks
Experimental: as §2

[13] = tested on: ABUTH Abutilon theophrasti; assay: Pre-emergence herbicidal action against harmful plants; settings: 80 g a.i./ha, visual scoring 3-4 weeks after treatment, Comparative Table 1
Description: as §1

[14] = tested on: ECHCG Echinochloa crus galli; assay: as above; settings: 80 g a.i./ha, visual scoring 3-4 weeks after treatment, Comparative Table 1
Description: as §1

[15] = tested on: LOLMU Lolium multiflorum; assay: as above; settings: visual scoring 3-4 weeks after treatment
Description: as §1

[16] = tested on: ABUTH Abutilon theophrasti; assay: Post-emergence herbicidal action against harmful plants; settings: Port-emergence, 80 g a.i./ha, scored after 3 to 4 weeks; Comparative Table 4
Experimental: as §2

[17] = tested on: AMARE Amaranthus retroflexus; assay: as above; settings: Port-emergence, 80 g a.i./ha, scored after 3 to 4 weeks; Comparative Table 4
Experimental: as §2

[18] = tested on: MATIN Matricaria inodora; assay: as above; settings: 80 g a.i./ha, scored after 3 to 4 weeks
Experimental: as §2

[19] = tested on: GALAP Galium aparine; assay: Pre-emergence herbicidal action against harmful plants; settings: 80 g a.i./ha, visual scoring 3-4 weeks after treatment, Comparative Table 8
Description: as §1

[20] = tested on: POLCO Polygonum convolvulus; assay: as above; settings: 80 g a.i./ha, visual scoring 3-4 weeks after treatment, Comparative Table 8
Description: as §1

[21] = tested on: AVESA; assay: as above; settings: 320 g a.i./ha, visual scoring 3-4 weeks after treatment, Comparative Table 6
Description: as §1

[22] = tested on: SETVI Setaria viridis; assay: as above; settings: 320 g a.i./ha, visual scoring 3-4 weeks after treatment, Comparative Table 6
Description: as §1

[23] = tested on: VIOTR Viola tricolor; assay: as above; settings: 80 g a.i./ha, visual scoring 3-4 weeks after treatment, Comparative Table 9
Description: as §1

[24] = tested on: XANST Xanthium strumarium; assay: as above; settings: 80 g a.i./ha, visual scoring 3-4 weeks after treatment, Comparative Table 9
Description: as §1

[25] = tested on: XANST Xanthium strumarium; assay: Post-emergence herbicidal action against harmful plants; settings: 80 g a.i./ha, scored after 3 to 4 weeks, Comparative Table 11
Experimental: as §2

[26] = 80 g a.i./ha, Comparative Table 2
[27] = Post-emergence, 80 g a.i./ha, Comparative Table 10
[28] = Port-emergence, 320 g a.i./ha, Comparative Table 7
[29] = Port-emergence, Comparative Table 5
[30] = 80 g a.i./ha, Comparative Table 1
[31] = Port-emergence, Comparative Table 4
[32] = Post-emergence, 80 g a.i./ha, Comparative Table 3
[33] = 80 g a.i./ha, Comparative Table 8
[34] = 320 g a.i./ha, Comparative Table 6
[35] = Post-emergence, Comparative Table 11
[36] = Port-emergence, 80 g a.i./ha, Comparative Table 7

CCn1ncc(C(=O)c2ccc(C(F)(F)F)c(S(C)(=O)=O)c2C)c1O [drawing 17]
Activity against harmful plants AMARE [1, 26]: 90%
Activity against harmful plants STEME [2]: 90%
Activity against harmful plants VERPE ([3]; Comparative Table 2): 90%

CCn1ncc(C(=O)c2ccc(C(F)(F)F)c(S(C)(=O)=O)c2C)c1O [drawing 33]
Activity against harmful plants DIGSA [4]: 100%
Activity against harmful plants ECHCG [5, 27]: 90%
Activity against harmful plants LOLMU [6, 27]: 60%
Activity against harmful plants SETVI [7, 27]: 100%

Cc1c(C(=O)c2cnn(C)c2O)ccc(C(F)(F)F)c1Cl
Activity against harmful plants AVESA ([8]; 320 g a.i./ha): 20%
Activity against harmful plants ECHCG [5, 28]: 0%
Activity against harmful plants LOLMU [6, 28]: 20%
Activity against harmful plants SETVI [7, 28]: 30%

CCn1ncc(C(=O)c2ccc(C(F)(F)F)c(S(C)(=O)=O)c2C)c1O [drawing 23]
Activity against harmful plants POLCO [9]: 100%
Activity against harmful plants STEME [10]: 90%
Activity against harmful plants VERPE [11, 29]: 90%
Activity against harmful plants VIOTR [12, 29]: 80%

CCn1ncc(C(=O)c2ccc(C(F)(F)F)c(F)c2C)c1O [drawing 16]
Activity against harmful plants ABUTH [13]: 0%
Activity against harmful plants ECHCG [14]: 30%
Activity against harmful plants LOLMU [15, 30]: 0%

CCn1ncc(C(=O)c2ccc(S(C)(=O)=O)c(S(C)(=O)=O)c2C)c1O [drawing 34]
Activity against harmful plants DIGSA [4]: 80%
Activity against harmful plants ECHCG [5, 27]: 80%
Activity against harmful plants LOLMU [6, 27]: 20%
Activity against harmful plants SETVI [7, 27]: 80%

CCn1ncc(C(=O)c2ccc(C(F)(F)F)c(S(C)(=O)=O)c2C)c1O [drawing 21]
Activity against harmful plants ABUTH [16]: 90%
Activity against harmful plants AMARE [17]: 100%
Activity against harmful plants MATIN [18, 31]: 90%

CCn1ncc(C(=O)c2ccc(C(F)(F)F)c(S(C)(=O)=O)c2C)c1O [drawing 15]
Activity against harmful plants ABUTH [13]: 100%
Activity against harmful plants ECHCG [14]: 100%
Activity against harmful plants LOLMU [15, 30]: 70%

CCn1ncc(C(=O)c2ccc(C(F)(F)F)c(S(C)(=O)=O)c2C)c1O [drawing 19]
Activity against harmful plants ECHCG [5, 32]: 90%
Activity against harmful plants LOLMU [6, 32]: 60%
Activity against harmful plants SETVI [7, 32]: 100%

CCn1ncc(C(=O)c2ccc(S(C)(=O)=O)c(S(C)(=O)=O)c2C)c1O [drawing 30]
Activity against harmful plants GALAP [19]: 60%
Activity against harmful plants LOLMU [15, 33]: 0%
Activity against harmful plants POLCO [20]: 30%

CCn1ncc(C(=O)c2ccc(C(F)(F)F)c(F)c2C)c1O [drawing 24]
Activity against harmful plants POLCO [9]: 60%
Activity against harmful plants STEME [10]: 0%
Activity against harmful plants VERPE [11, 29]: 0%
Activity against harmful plants VIOTR [12, 29]: 0%

Cc1c(C(=O)c2cnn(C)c2O)ccc(C(F)(F)F)c1S(C)(=O)=O [drawing 25]
Activity against harmful plants AMARE [1, 34]: 100%
Activity against harmful plants AVESA [21]: 90%
Activity against harmful plants LOLMU [15, 34]: 90%
Activity against harmful plants SETVI [22]: 100%

CCn1ncc(C(=O)c2ccc(C(F)(F)F)c(S(C)(=O)=O)c2C)c1O [drawing 29]
Activity against harmful plants GALAP [19]: 80%
Activity against harmful plants LOLMU [15, 33]: 70%
Activity against harmful plants POLCO [20]: 50%

CCn1ncc(C(=O)c2ccc(C(F)(F)F)c(F)c2C)c1O [drawing 18]
Activity against harmful plants AMARE [1, 26]: 0%
Activity against harmful plants STEME [2]: 40%
Activity against harmful plants VERPE ([3]; Comparative Table 2): 0%

CCn1ncc(C(=O)c2ccc(S(C)(=O)=O)c(S(C)(=O)=O)c2C)c1O [drawing 32]
Activity against harmful plants VERPE ([3]; Comparative Table 9): 80%
Activity against harmful plants VIOTR [23]: 20%
Activity against harmful plants XANST [24]: 40%

CCn1ncc(C(=O)c2ccc(C(F)(F)F)c(F)c2C)c1O [drawing 20]
Activity against harmful plants ECHCG [5, 32]: 0%
Activity against harmful plants LOLMU [6, 32]: 0%
Activity against harmful plants SETVI [7, 32]: 0%

CCn1ncc(C(=O)c2ccc(C(F)(F)F)c(S(C)(=O)=O)c2C)c1O [drawing 31]
Activity against harmful plants VERPE ([3]; Comparative Table 9): 90%
Activity against harmful plants VIOTR [23]: 90%
Activity against harmful plants XANST [24]: 100%

CCn1ncc(C(=O)c2ccc(C(F)(F)F)c(S(C)(=O)=O)c2C)c1O [drawing 35]
Activity against harmful plants MATIN [18, 35]: 90%
Activity against harmful plants VERPE [11, 35]: 90%
Activity against harmful plants VIOTR [12, 35]: 80%
Activity against harmful plants XANST [25]: 100%

Cc1c(C(=O)c2cnn(C)c2O)ccc(C(F)(F)F)c1S(C)(=O)=O [drawing 27]
Activity against harmful plants AVESA ([8]; 80 g a.i./ha): 70%
Activity against harmful plants ECHCG [5, 36]: 90%
Activity against harmful plants LOLMU [6, 36]: 80%
Activity against harmful plants SETVI [7, 36]: 90%

CCn1ncc(C(=O)c2ccc(C(F)(F)F)c(F)c2C)c1O [drawing 22]
Activity against harmful plants ABUTH [16]: 80%
Activity against harmful plants AMARE [17]: 0%
Activity against harmful plants MATIN [18, 31]: 0%

CCn1ncc(C(=O)c2ccc(S(C)(=O)=O)c(S(C)(=O)=O)c2C)c1O [drawing 36]
Activity against harmful plants MATIN [18, 35]: 40%
Activity against harmful plants VERPE [11, 35]: 80%
Activity against harmful plants VIOTR [12, 35]: 50%
Activity against harmful plants XANST [25]: 70%

Cc1c(C(=O)c2cnn(C)c2O)ccc(C(F)(F)F)c1F
Activity against harmful plants AMARE [1, 34]: 50%
Activity against harmful plants AVESA [21]: 20%
Activity against harmful plants LOLMU [15, 34]: 20%
Activity against harmful plants SETVI [22]: 20%
